Laboratory results taken from PMC2767189 (Clinical Pharmacology and Therapeutics, 2008).
Where “and” joins values, the source holds several entries; their conditions need not be identical. Equal entries are not always repeated. Where two headings read alike, the source gives them in different places. Each block holds one molecule with its values, some of them ahead of it.

Key:
[1] = cited from earlier work
[2] = Intracellular triphosphate; type: in vivo, human; settings: median ratio, 4 h after dose vs predose; all subjects
[3] = molecular target: HIV-1 reverse transcriptase; settings: cited from earlier work
[4] = 300 mg twice daily
clinical = settings: human, plasma, oral, 300 mg, 300 mg twice daily; for AUC: ABC AUC; for Cmax: ABC Cmax; for Vd/F: ABC Vd/F (volume of distribution); for half-life: ABC half-life
[5] = cited from earlier work; remark: listed apart in the source

SMILES: Nc1nc(=O)c2ncn([C@H]3C=C[C@@H](COP(=O)(O)OP(=O)(O)OP(=O)(O)O)C3)c2[nH]1 [Carbovir-TP, carbovir-triphosphate]
intracellular carbovir-TP concentrations ([1]; range reported from previous studies): 4-290 fmol/10^6 cells
C4/C0 ratio of intracellular TP concentrations [2]: 1.89 and 1.9
carbovir-TP reverse transcriptase Ki expressed as intracellular amount ([3]; equivalent of 21 nmol/l): ~ 10 fmol/10^6 cells
Ki ([3]; read-out: carbovir-TP reverse transcriptase Ki, ex vitro): 0.021 µM

C4/C0 ratio of intracellular TP concentrations [2]: 1.95
SMILES: Cc1cn([C@H]2C[C@H](N=[N+]=[N-])[C@@H](CO[P@](=O)(O)O[P@](=O)(O)OP(=O)(O)O)O2)c(=O)[nH]c1=O [Zidovudine-TP, zidovudine triphosphate]
intracellular zidovudine-TP concentrations ([1]; range seen in previous studies): 6.3-58 fmol/10^6 cells

C4/C0 ratio of intracellular TP concentrations [2]: 1.31 and 1.3
SMILES: Nc1ccn([C@@H]2CS[C@H](COP(=O)(O)OP(=O)(O)OP(=O)(O)O)O2)c(=O)n1 [Lamivudine-TP, lamivudine triphosphate]
intracellular lamivudine-TP average concentrations ([1]; range of averages in previous studies): 1.7-8.6 pmol/10^6 cells

ABC CL/F (apparent oral clearance) ([4]; mean (SD), <18 years (n = 15)): 47.47 (19.52) l/h
ABC CL/F adjusted for body surface area ([4]; mean (SD), <18 years (n = 15)): 481.60 (192.62) ml/min/m^2
ABC CL/F adjusted for weight ([4]; mean (SD), <18 years (n = 15)): 13.03 (5.31) ml/min/kg
ABC CL/F (apparent oral clearance) ([4]; mean (SD), Total (n = 30)): 45.44 (16.87) l/h
ABC CL/F adjusted for body surface area ([4]; mean (SD), Total (n = 30)): 437.77 (168.51) ml/min/m^2
ABC CL/F adjusted for weight ([4]; mean (SD), Total (n = 30)): 11.73 (4.84) ml/min/kg
ABC CL/F (apparent oral clearance) ([4]; mean (SD), ≥18 years (n = 15)): 43.40 (14.13) l/h
ABC CL/F adjusted for body surface area ([4]; mean (SD), ≥18 years (n = 15)): 393.93 (132.66) ml/min/m^2
ABC CL/F (apparent oral clearance) ([4]; median, <18 years (n = 15)): 42.80 L/h
ABC CL/F adjusted for body surface area ([4]; median, <18 years (n = 15)): 382.00 ml/min/m^2
ABC CL/F (apparent oral clearance) ([4]; median, Total (n = 30)): 44.70 L/h
ABC CL/F adjusted for body surface area ([4]; median, Total (n = 30)): 390.50 ml/min/m^2
ABC CL/F (apparent oral clearance) ([4]; median, ≥18 years (n = 15)): 45.50 L/h
ABC CL/F adjusted for body surface area ([4]; median, ≥18 years (n = 15)): 399.00 ml/min/m^2
AUC (clinical; mean (SD), <18 years (n = 15)): 7350 ng·h/mL
AUC (clinical; mean (SD), Total (n = 30)): 7480 ng·h/mL
AUC (clinical; mean (SD), ≥18 years (n = 15)): 7610 ng·h/mL
AUC (clinical; median, <18 years (n = 15)): 7010 ng·h/mL
AUC (clinical; median, Total (n = 30)): 6720 ng·h/mL
AUC (clinical; median, ≥18 years (n = 15)): 6590 ng·h/mL
Cmax (clinical; mean (SD), <18 years (n = 15)): 2790 ng/mL
Cmax (clinical; mean (SD), Total (n = 30)): 2860 ng/mL
Cmax (clinical; mean (SD), ≥18 years (n = 15)): 2940 ng/mL
Cmax (clinical; median, <18 years (n = 15)): 2580 ng/mL
Cmax (clinical; median, Total (n = 30)): 2620 ng/mL
Cmax (clinical; median, ≥18 years (n = 15)): 2740 ng/mL
Vd/F (clinical; mean (SD), <18 years (n = 15)): 82.9 L and 1.35 L/kg
Vd/F (clinical; mean (SD), Total (n = 30)): 77.8 L and 1.19 L/kg
Vd/F (clinical; mean (SD), ≥18 years (n = 15)): 72.8 L and 1.04 L/kg
Vd/F (clinical; median, <18 years (n = 15)): 67.1 L and 0.9 L/kg
Vd/F (clinical; median, Total (n = 30)): 71.5 L and 1.05 L/kg
Vd/F (clinical; median, ≥18 years (n = 15)): 73.5 L and 1.1 L/kg
half-life (clinical; mean (SD), <18 years (n = 15)): 1.23 h
half-life (clinical; mean (SD), Total (n = 30)): 1.19 h
half-life (clinical; mean (SD), ≥18 years (n = 15)): 1.14 h
half-life (clinical; median, <18 years (n = 15)): 1.22 h
half-life (clinical; median, Total (n = 30)): 1.23 h
half-life (clinical; median, ≥18 years (n = 15)): 1.34 h
SMILES: Nc1nc(NC2CC2)c2ncn([C@H]3C=C[C@@H](CO)C3)c2n1 [ABC, abacavir]
observed clearance seen in adults (reference value for hypothesis test on AUC) ([5]; adults, reference not printed at the place): 6000 ng·h/mL
abacavir steady-state AUC ([5]; older adults, 300 mg twice daily (~4 mg/kg)): 5000 to 6000 ng·h/mL
abacavir weight-adjusted apparent oral clearance ([5]; translated from 0.86 l/min for a 70-kg adult, ref 12 (McDowell et al.)): 12.3 mL/min/kg
